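Following 48 hours of exposure in 96-well plates, responses at five concentrations were used to interpolate endpoints linearly. The concentration for 50% growth inhibition is given as GI50. The concentration for full growth arrest is given as TGI.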 Where a SMILES comes first, the peptide text is derived from it. [ ]: non-standard residue; d: D form. pGlu = O=C1CC[CH](C(=O)O)N1; Thz = O=C(O)[CH]1CSCN1
What was measured:
Assay in all cases: NCI tumour cell line growth inhibition, 48 h
HCC-2998 colon = test system: HCC-2998 colon
SNB-78 CNS = test system: SNB-78 CNS
P388/ADR leukemia = test system: P388/ADR leukemia
DMS 273 small cell lung = test system: DMS 273 small cell lung
HOP-18 NSCLC = test system: HOP-18 NSCLC
KM20L2 colon = test system: KM20L2 colon
DLD-1 colon = test system: DLD-1 colon
DMS 114 small cell lung = test system: DMS 114 small cell lung
P388 leukemia = test system: P388 leukemia
SN12K1 renal = test system: SN12K1 renal
XF 498 CNS = test system: XF 498 CNS
M19-MEL melanoma = test system: M19-MEL melanoma
LXFL 529 NSCLC = test system: LXFL 529 NSCLC
RXF-631 renal = test system: RXF-631 renal

Compound | TGI (HCC-2998 colon) [µM] | further results
COc1ccc(/C=C2\N=C(N3CCCC(CO)C3)NC2=O)cc1 (stereo not given) | > 100 | 
FC1(F)ON2CCc3ccccc3C2[C@H]1c1ccccc1 (stereo not given in full) | > 100 | GI50 (HCC-2998 colon): > 100 µM
COC(=O)[C@H](Cc1ccccc1)NC(=O)c1ccc(CNC(=O)/C=C/c2ccc(OCc3ccccc3)cc2)cc1 | > 100 | 
CC(C)(C)C1=C(Br)C(F)(C(C)(C)C)OP1(=O)c1ccccc1 (stereo not given) | 28.4 | 
O=C1C(Cl)=C(Cl)C(=O)C(CCNc2nccs2)=C1Cl | > 100 | 
C=C1C2CCC3C4(C)CCCC(C)(C(=O)O)C4CCC3(C2)C1OC(=O)/C(C)=C/C (stereo not given) | 69.5 | 
Cn1c(-c2ccc(C=O)o2)ccc1-c1ccc(C=O)o1 | > 100 | 
CC(NC1=NCCO1)c1ccccc1Cl (stereo not given) | > 100 | 
CC1OC(OC2C(O)COC(OC3C(C)OC(OC4C(OC(=O)[C@]56CCC(C)(C)C[C@@H]5C5=CCC7[C@@]8(C)C[C@H](O)[C@H](OC9OC(CO)C(O)C(O)C9O)[C@@](C)(CO)[C@@H]8CC[C@@]7(C)[C@]5(C)CC6)OCC(O)C4O)C(O)C3O)C2O)C(O)C(O)C1O (stereo not given in full) | 38 | 
c1ccc2c3c(ccc2c1)-c1[nH]ncc1CCO3 | > 100 | TGI (SNB-78 CNS): > 100 µM; TGI (P388/ADR leukemia): > 100 µM; TGI (DMS 273 small cell lung): > 100 µM; TGI (HOP-18 NSCLC): > 100 µM; TGI (KM20L2 colon): > 95.1 µM; TGI (DLD-1 colon): > 100 µM; TGI (DMS 114 small cell lung): > 82.4 µM; TGI (P388 leukemia): > 100 µM; TGI (SN12K1 renal): > 79.8 µM; TGI (XF 498 CNS): 79.8 µM; TGI (M19-MEL melanoma): > 100 µM
ClCc1nc2ccccc2[nH]1 | > 100 | 
COc1ccc(/[N+]([O-])=C/c2ccc(OC(=S)S)c(OC)c2)cc1 | > 100 | 
CCCn1cc2c(=O)[nH]c(SC)nc2n1 | > 100 | TGI (SNB-78 CNS): > 100 µM; TGI (DMS 273 small cell lung): > 100 µM; TGI (HOP-18 NSCLC): > 100 µM; TGI (DLD-1 colon): > 100 µM; TGI (LXFL 529 NSCLC): > 100 µM; TGI (DMS 114 small cell lung): > 100 µM; TGI (XF 498 CNS): 98.1 µM
CC1CCN(C(C)C)P(=S)(Cc2ccccc2)O1 (stereo not given) | > 100 | 
NS(=O)(=O)c1ccc(NC(=O)N/N=C/c2ccccc2[N+](=O)[O-])cc1 | > 100 | 
Cc1ccc2c(c1)nc1n2C(c2c(F)cccc2F)SC1 (stereo not given) | > 100 | 
CO/C=C(/C(=O)OC)[C@@H]1C[C@@H]1c1ccc2ccccc2c1 | 50.5 | 
COc1ccc(C(=O)/C=C/c2ccc(OCCCCCCCCCCOc3ccc(/C=C/C(=O)c4ccc(OC)cc4)cc3)cc2)cc1 | > 100 | 
COC(=O)CCc1ccc(CCC(=O)OC)cc1 | > 100 | 
O=c1onc2n1-c1ccc(Cl)cc1C(=S)N1CSCC21 (stereo not given) | 35.4 | 
CN(C)Cc1cc(Cl)c(O)c(CN(C)C)c1 | > 100 | 
Fc1cc(C2=Nn3c(COc4ccccc4Cl)nnc3S/C2=C\c2ccc(Cl)cc2)c(Cl)cc1Cl | 16.3 | 
CC(NC(=O)C1CCC(=O)N1)C(=O)N1CCCC1C(N)=O (stereo not drawn) ([pGlu]-Ala-Pro-NH2; configuration not given here) | > 100 | 
COC(=O)c1ccc(NCc2cc(OC)ccc2OC)cc1 | > 100 | 

Compound | TGI (HCC-2998 colon) [µM] | further results
C#C[C@]1(O)CC[C@H]2[C@@H]3CCC4=C/C(=N\OCCN5CCCCC5)CC[C@]4(C)[C@H]3CC[C@@]21C | 35.2 | 
COc1ccc2c(c1)c1c3c(ccc4ncn2c43)N(CCO)CCN=1 | 0.369 | 
COC(=O)C(Cc1c[nH]c2ccccc12)NC(=O)C(Cc1cnc[nH]1)NC(=O)C1CCC(=O)N1C(=O)OCc1ccccc1 (stereo not given) | > 100 | 
O=C(Nc1ccccc1)N(CCN(Cc1ccccc1)C(=O)Nc1ccccc1)CCN(Nc1ccccc1)C(=O)Nc1ccccc1 | > 100 | 
C(=N\c1nc2cc3sc(/N=C/c4ccccc4)nc3cc2s1)/c1ccccc1 | > 100 | 
COC(=O)C1=CO[C@@H](C)[C@@H]2Cn3ccc4c5ccccc5nc-4c3C[C@H]12 |  | TGI (SNB-78 CNS): > 100 µM; TGI (DMS 273 small cell lung): > 100 µM; TGI (HOP-18 NSCLC): > 100 µM; TGI (KM20L2 colon): > 100 µM; TGI (DLD-1 colon): > 100 µM; TGI (LXFL 529 NSCLC): > 100 µM; TGI (DMS 114 small cell lung): > 100 µM; TGI (XF 498 CNS): > 100 µM; TGI (RXF-631 renal): > 100 µM; TGI (M19-MEL melanoma): > 100 µM
O=c1[nH]c(NCc2cccnc2)nc2nc[nH]c12 | > 100 | 
CCOC(=O)c1c(O)cn2c1[nH]c1cccc3cccc2c31 | > 100 | 
Nn1c(CCCCCCCCc2nnc(-c3c(O)ccc4ccccc34)n2N)nnc1-c1c(O)ccc2ccccc12 | > 100 | 
CC1C(C)(C)C23CC12C1(OCCO1)C3Br (stereo not given) | > 100 | 
C[C@H](Nc1nc(N)c(N=O)c(=O)n1C)C(=O)O | > 10 | 
S=C(NCc1ccccc1)Nc1sc(=NCc2ccccc2)nc2sc3c(c12)CCN(N1CCc2c(sc4nc(=NCc5ccccc5)sc(NC(=S)NCc5ccccc5)c24)C1)C3 | > 62 | 
COC(=O)c1cc2c(c(C(=O)OC)c1)CCC2 | > 100 | 
CCOC(=O)c1c(N)sc2c1CC(C)CC2 (stereo not given) | 45.6 | 
O=c1[nH]c(Nc2ccc(Br)c(C(F)(F)F)c2)nc2nc[nH]c12 | 40.5 | 
CCOC(=O)CNC(=O)C(CCC(=O)N(C)O)NC(=O)CCC(N)C(=O)O (stereo not given) | > 100 | 
C=C(/C=C/C=C(\C)CCC=C(C)C)[C@@H]1CC[C@]2([C@H](CCCO)/C(=C(/C)C=O)CC[C@]2(C)O)[C@@H]1O | 35.6 | TGI (SNB-78 CNS): 33.5 µM; TGI (DMS 273 small cell lung): 27.9 µM; TGI (HOP-18 NSCLC): 60.4 µM; TGI (KM20L2 colon): > 100 µM; TGI (DLD-1 colon): 38.7 µM; TGI (LXFL 529 NSCLC): 33.7 µM; TGI (XF 498 CNS): 32.8 µM
COc1c2c(c3c(c1OC)c(=O)c1ccccc1n3C)OCO2 | > 100 | 
O=C(OC1=CCN(Br)C1=O)C1=C(O)C(=O)N(Br)C1 | > 100 | 
COc1ccc(S(=O)(=O)Nc2ccc(-c3csc(N4C(=O)/C(=C/c5ccccc5[N+](=O)[O-])N=C4c4ccccc4)n3)cc2)cc1Cl | 63.5 | 
CCn1c(SCC(=O)N/N=C2\SCC(=O)N2c2ccc(C)cc2)nc2ccccc2c1=O | > 100 | 
COc1ccc(C2SCC(=O)N2c2ccc(-n3c(-c4ccccc4)nc4ccccc4c3=O)cc2)cc1 (stereo not given) | > 100 | 
O=C1CCC(C(=O)N2CSCC2C(=O)O)N1 (stereo not given) ([pGlu]-[Thz]-OH; configuration not given here) | > 100 | 
COC(=O)C1=C(C)NC(=O)N2[C@@H](CCOCc3ccccc3)CC[C@@H]12 | > 50 | 

Compound | TGI (HCC-2998 colon) [µM] | further results
Cc1c(NC(=S)Nc2ccc([N+](=O)[O-])cc2)c(=O)n(-c2ccccc2)n1C | > 100 | 
C=C1C(C(=O)OC)[C@H]1C(=O)OC (stereo not given in full) | > 100 | 
O=C(Cc1ccc2ccccc2c1)NCc1ccc(C(=O)NCCc2ccccc2)cc1 | > 100 | 
O=C1c2ccccc2N(O)C1(c1ccccc1)C1CCCC=C1N1CCOCC1 (stereo not given) | > 100 | TGI (SNB-78 CNS): > 100 µM; TGI (DMS 273 small cell lung): > 100 µM; TGI (KM20L2 colon): > 100 µM; TGI (DLD-1 colon): > 100 µM; TGI (LXFL 529 NSCLC): > 100 µM; TGI (DMS 114 small cell lung): > 100 µM; TGI (M19-MEL melanoma): > 100 µM
Cc1cn(C2CC(n3cc(Cn4ccc(=O)[nH]c4=O)nn3)C(CO)O2)c(=O)[nH]c1=O (stereo not given) | > 100 | 
CCCCCCN(CCCCCC)CCC(=O)c1ccc2cc(Br)c3ccccc3c2c1 | > 100 | 
S=P1(Sc2ccccc2)Oc2ccc3ccccc3c2-c2c(ccc3ccccc23)O1 | > 100 | TGI (SNB-78 CNS): > 100 µM; TGI (P388/ADR leukemia): > 100 µM; TGI (DMS 273 small cell lung): > 100 µM; TGI (HOP-18 NSCLC): > 100 µM; TGI (KM20L2 colon): > 100 µM; TGI (DLD-1 colon): > 100 µM; TGI (DMS 114 small cell lung): > 100 µM; TGI (P388 leukemia): > 100 µM; TGI (SN12K1 renal): > 100 µM; TGI (XF 498 CNS): > 100 µM; TGI (M19-MEL melanoma): > 100 µM
COc1ccc(C2CC(c3c(O)ccc4ccccc34)=NN2)cc1OC (stereo not given) | 6.15 | 
Nc1ncnc2c1ncn2[C@H]1C=C[C@@H](NO)C1 | > 100 | 
Cc1ccc(S(=O)(=O)n2cc(C=O)c(-c3cn(S(=O)(=O)c4ccc(C)cc4)cc3-c3cn(S(=O)(=O)c4ccc(C)cc4)cc3C=O)c2)cc1 | > 100 | 
CC(C)C1CSC2N1C(=O)C2(OCc1ccccc1)C1CC1 (stereo not given) | > 100 | 
CC(=O)Nc1nc(C)c(S(=O)(=O)NC(=O)NC2NC(=O)NC2=O)s1 (stereo not given) | > 100 | 
CC(C)(C)c1ccc2c(c1)OP1(Oc3c(Cl)cc(Cl)c4cccnc34)(O2)Oc2ccc(C(C)(C)C)cc2O1 | 23.4 | TGI (SNB-78 CNS): > 86.8 µM; TGI (P388/ADR leukemia): 9.93 µM; TGI (DMS 273 small cell lung): 18.3 µM; TGI (HOP-18 NSCLC): 32.4 µM; TGI (KM20L2 colon): 14.6 µM; TGI (DLD-1 colon): 18.1 µM; TGI (DMS 114 small cell lung): 9.57 µM; TGI (P388 leukemia): 2.61 µM; TGI (SN12K1 renal): 19.6 µM; TGI (XF 498 CNS): 26.7 µM
Nc1nc(Cl)cc(NCC2(CCO)CCC2)n1 | > 100 | 
CCOC(=O)C12CCC(=O)N1N(C)c1ncccc1N2 (stereo not given) | > 100 | 
NCC(=O)Nc1ccccc1 | > 100 | 
CCCCSC1=N/C(=C\c2ccccc2O)C(=O)N1 | > 100 | 
CN(O)C(=O)CCC(NC(=O)CCC(N)C(=O)O)C(=O)NCC(=O)O (stereo not given) | > 100 | 
O=P1(c2ccccc2)C(c2ccccc2)CCC1c1ccccc1 (stereo not given) | > 100 | 
Cn1c(-c2ccco2)ccc1-c1ccc(C=O)o1 | > 100 | 
COc1ccc(CCN2CCN(CCCc3ccccc3)CC2)cc1 | > 100 | 
COc1cc(C2C=C(c3ccccc3)Oc3cc4c(cc32)OCO4)cc(OC)c1OC (stereo not given) | > 100 | 
CCOC(=O)C(NC(=O)c1cccc(Cl)c1)(Nc1ccc(S(=O)(=O)Nc2cc(C)on2)cc1)C(F)(F)F (stereo not given) | > 100 | 
NC1=Nc2ccccc2Sc2nncn21 | > 100 | 

Reference: PubChem BioAssay (NCI)
